Assays:
[1] = tested on: TopBP1-proximal proteins (Psf3, Psf2); experiment: APEX2 proximity biotinylation, streptavidin pulldown and mass spectrometry; assay type: cell-based, human; conditions: three proximity biotinylation experiments; + H2O2 vs - H2O2; four biological replicates
Description: Proximity labelling was performed in isogenic stable 293 Flip-In (Thermo Fisher; R75007) cells stably expressing TopBP1 N-terminal tagged with APEX2 or in 293T cells transiently expressing either N-terminal or C-terminally APEX2-tagged TopBP1. 24 h before transfection, 0.8 × 10^6 cells were seeded onto a 6-cm plate. For each condition, four dishes were separately transfected (biological replicates). One day after transfection, cells were incubated for 30 min with 500 µM biotin phenol at 37 °C, before incubation for 1 min at RT with or without (controls) 1 mM H2O2. The medium was discarded, and cells were washed three times with quenching buffer (10 mM sodium azide, 10 mM sodium ascorbate and 5 mM Trolox in Dulbecco’s PBS (Life Technologies 14190169). Cells were rinsed off the dishes with DPBS, transferred into reaction tubes before washing again with DPBS. Cells were lysed at 95 °C for 10 min in TSD buffer (50 mM Tris pH 7.5, 5 mM DTT and 1% SDS). Samples were diluted ten times with TNN buffer (20 mM Tris pH 7.9, 200 mM NaCl and 0.5% NP-40 alternative) and benzonase (75 U per sample) (Sigma E1014). Samples were incubated for 15 min at 4 °C and centrifuged at 21,000 × g for 2 min at 4 °C. Supernatants were incubated over night with 15 µl streptavidin sepharose beads (Sigma GE17-5113-01) at 4 °C. […]

Sld5 = experiment: Myc immunoprecipitation from transfected 293T cells, Sld5 co-IP; assay type: binding; conditions: transiently transfected 293T cell lysates, anti-Myc
Description: Transient transfections of 6xMyc-Tev2-TopBP1 into 293T cells (ATCC CRL-11268) were carried out using PEI (polyethyleneimine) according to a protocol kindly shared by David Cortez’ lab. 4 µg plasmid DNA in 100 µl DMEM (Thermofisher, 41965039) without penicillin-streptomycin were combined with 2.4 µl Polyethylenimin (Sigma, 408727; 10 mg/ml) and incubated for 20 min before addition to 4 × 10^6 cells on a 10-cm dish. Transfected cells were used 72 h post transfection. 72 h post transfection, 293T cells were lysed by douncing in ten times cell pellet volume of lysis buffer (20 mM HEPES pH 8.0, 150 mM NaCl, 0.1% (v/v) Tween-20, 0.5 mM TCEP, 2% (v/v) glycerol, protease inhibitor cocktail (Roche, Complete protease inhibitor cocktail, 05056489001)), and centrifuged at 20,000 × g for 15 min at 4 °C. The soluble supernatant was added to magnetic anti-Myc beads (5 µl slurry per sample; Thermofischer, 88842) and incubated for 2 h at 4 °C rotating. Cells equivalent to 50% of a 15 cm dish were used per sample. Beads were washed three times in lysis buffer with 5 min incubation each, and finally boiled in 50 µl Laemmli loading buffer (6.5% glycerol, 715 mM β-mercaptoethanol, 3% SDS, 62.5 mM Tris-HCl pH 7.9, 0.005% bromphenol blue).
Non-APEX2-bio=nylated samples (-H2O2) were used as controls. […] Immunoprecipitated TopBP1 was detected using Ponceau (Ponc.) staining. […]

Molecule	enrichment of Psf3 upon streptavidin pulldown [1]	Sld5 co-immunoprecipitation (Sld5)
APEX2-tagged TopBP1: N- or C-terminally APEX2-tagged TopBP1	specific enrichment of Psf3	–
TopBP1-BRCT0-5: 6Myc-TEV2-tagged TopBP1-BRCT0-5 expressed in 293T cells (protein, left off: Strep, C-terminal, kept, 6Myc-TEV2-tagged TopBP1-BRCT0-5 expressed in 293T cells) MSRNDKEPFFVKFLKSSDNSKCFFKALESIKEFQSEEYLQIITEEEALKIKENDRSLYICDPFSGVVFDHLKKLGCRIVGPQVVIFCMHHQRCVPRAEHPVYNMVMSDVTISCTSLEKEKREEVHKYVQMMGGRVYRDLNVSVTHLIAGEVGSKKYLVAANLKKPILLPSWIKTLWEKSQEKKITRYTDINMEDFKCPIFLGCIICVTGLCGLDRKEVQQLTVKHGGQYMGQLKMNECTHLIVQEPKGQKYECAKRWNVHCVTTQWFFDSIEKGFCQDESIYKTEPRPEAKTMPNSSTPTSQINTIDSRTLSDVSNISNINASCVSESICNSLNSKLEPTLENLENLDVSAFQAPEDLLDGCRIYLCGFSGRKLDKLRRLINSGGGVRFNQLNEDVTHVIVGDYDDELKQFWNKSAHRPHVVGAKWLLECFSKGYMLSEEPYIHANYQPVEIPVSHKPESKAALLKKKNSSFSKKDFAPSEKHEQADEDLLSQYENGSSTVVEAKTSEARPFNDSTHAEPLNDSTHISLQEENQSSVSHCVPDVSTITEEGLFSQKSFLVLGFSNENESNIANIIKENAGKIMSLLSRTVADYAVVPLLGCEVEATVGEVVTNTWLVTCIDYQTLFDPKSNPLFTPVPVMTGMTPLEDCVISFSQCAGAEKESLTFLANLLGASVQEYFVRKSNAKKGMFASTHLILKERGGSKYEAAKKWNLPAVTIAWLLETARTGKRADESHFLIENSTKEERSLETEITNGINLNSDTAEHP	–	weak but specific signal

Reference: paper PMC10899662, “TopBP1 utilises a bipartite GINS binding mode to support genome replication” (Nature Communications, 2024)
